Values of other authors in patent US20100273825A1, “SOLID PHARMACEUTICAL COMPOSITION CONTAINING SOLIFENACIN AMORPHOUS FORM” (ASTELLAS PHARMA INC., priority 2009, published 2010).

Target: M3 receptors (Homo sapiens, UniProt P20309)
Settings: M3 in smooth muscles, gland tissues; M2 in the heart

M3 receptors, sequence (P20309 whole entry): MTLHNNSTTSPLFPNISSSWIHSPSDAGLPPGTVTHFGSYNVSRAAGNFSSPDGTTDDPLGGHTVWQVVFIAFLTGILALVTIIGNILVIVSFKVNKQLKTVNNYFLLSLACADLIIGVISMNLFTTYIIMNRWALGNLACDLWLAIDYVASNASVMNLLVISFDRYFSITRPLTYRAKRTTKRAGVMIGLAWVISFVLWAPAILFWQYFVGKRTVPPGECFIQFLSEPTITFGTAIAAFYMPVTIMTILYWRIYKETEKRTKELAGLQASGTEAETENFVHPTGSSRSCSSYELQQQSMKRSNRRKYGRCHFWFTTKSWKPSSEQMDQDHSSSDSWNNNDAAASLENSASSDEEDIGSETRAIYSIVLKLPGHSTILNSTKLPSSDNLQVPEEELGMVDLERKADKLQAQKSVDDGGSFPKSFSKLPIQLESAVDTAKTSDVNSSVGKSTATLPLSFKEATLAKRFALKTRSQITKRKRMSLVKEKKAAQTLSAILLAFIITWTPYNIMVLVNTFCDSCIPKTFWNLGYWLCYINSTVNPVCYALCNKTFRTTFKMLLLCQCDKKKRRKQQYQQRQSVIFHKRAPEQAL

In the case of `O=C(O[C@H]1CN2CCC1CC2)N1CCc2ccccc2[C@@H]1c1ccccc1` [solifenacin, (R)-quinuclidin-3-yl (S)-1-phenyl-1,2,3,4-tetrahydroisoquinoline-2-carboxylate], the “Selectivity for M3 receptors in comparison with M2 receptors” value is given as “high selectivity”.
